Laboratory results from US12110294B2, “CD73 compounds” (Gilead Sciences, Inc., priority 2020, dated 2024).

Target: T1, CD73 activity in MDA-MB-231-GFP cells (Homo sapiens, UniProt P21589)
T1 construct: endogenous in cells; host or cells: MDA-MB-231-GFP cells
T1 sequence (P21589 27-549): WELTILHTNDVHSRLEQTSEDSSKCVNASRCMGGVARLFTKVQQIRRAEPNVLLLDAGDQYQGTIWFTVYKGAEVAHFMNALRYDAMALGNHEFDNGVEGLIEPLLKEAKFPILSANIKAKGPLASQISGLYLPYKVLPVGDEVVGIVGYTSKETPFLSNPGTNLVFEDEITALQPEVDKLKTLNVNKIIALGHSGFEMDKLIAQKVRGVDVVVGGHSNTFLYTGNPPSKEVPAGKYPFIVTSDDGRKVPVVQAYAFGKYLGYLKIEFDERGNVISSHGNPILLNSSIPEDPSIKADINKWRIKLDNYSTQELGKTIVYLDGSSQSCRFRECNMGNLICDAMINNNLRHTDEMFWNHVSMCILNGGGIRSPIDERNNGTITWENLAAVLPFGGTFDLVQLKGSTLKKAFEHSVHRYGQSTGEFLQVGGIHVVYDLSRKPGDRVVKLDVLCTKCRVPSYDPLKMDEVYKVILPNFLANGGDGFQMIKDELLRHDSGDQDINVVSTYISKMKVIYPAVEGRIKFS
Assay: MDA-MB-231 Cell Based CD73 Activity Assay (DMEM)
Conditions: 3000 cells per well, DMEM medium with 10% human plasma, overnight compound treatment, AMP 200 uM
Experimental: MDA-MB-231 Cell Based CD73 Activity Assay (DMEM) MDA-MB-231-GFP cells were seeded in 384-well plates (Greiner 781946) at a density of 3000 cells per well in 50 μL of DMEM medium with 10% HP (human plasma). Cells were plated into assay plate with compounds pre-spotted, for an overnight compound treatment. 50 uL of 400 uM AMP (final concentration will be 200 uM) was added using Bio-tek dispenser. Plates were incubated for 100 mins. […] The samples were analyzed using Rapid fire.

Structure (SMILES)	EC50 [nM]
O=c1[nH]cc(-c2cc([C@H]3C[C@@H]3c3ccc4cnn(CC5CC5(F)F)c4c3)c3nccn3n2)c(=O)[nH]1 (mixture of isomers) [Example 118, 5-(8-((2S,2S)-2-(1-((2,2-difluorocyclopropyl)methyl)-1H-indazol-6-yl)cyclopropyl)imidazo[1,2-b]pyridazin-6-yl)pyrimidine-2,4(1H,3H)-dione]	0.1
O=c1[nH]cc(-c2cc([C@H]3C[C@@H]3c3cc4c(ccn4CC(F)(F)F)cn3)c3nccn3n2)c(=O)[nH]1 (racemic) [Example 127, 5-(8-((2S,2S)-2-(1-(2,2,2-trifluoroethyl)-1H-pyrrolo[3,2-c]pyridin-6-yl)cyclopropyl)imidazo[1,2-b]pyridazin-6-yl)pyrimidine-2,4(1H,3H)-dione]	0.17
O=c1[nH]cc(-c2cc([C@H]3C[C@@H]3c3ccc4c(C5CC5)nn(CC(F)(F)F)c4c3)c3nccn3n2)c(=O)[nH]1 (racemic) [Example 128, 5-(8-((2S,2S)-2-(3-cyclopropyl-1-(2,2,2-trifluoroethyl)-1H-indazol-6-yl)cyclopropyl)imidazo[1,2-b]pyridazin-6-yl)pyrimidine-2,4(1H,3H)-dione]	0.4
O=c1[nH]cc(-c2cc([C@H]3C[C@@H]3c3ccc4cnn(CC5CC5)c4c3)c3nccn3n2)c(=O)[nH]1 (racemic) [Example 130, 5-(8-((2S,2S)-2-(1-(cyclopropylmethyl)-1H-indazol-6-yl)cyclopropyl)imidazo[1,2-b]pyridazin-6-yl)pyrimidine-2,4(1H,3H)-dione]	0.13
N#Cc1ccc([C@H]2C[C@@H]2c2cc(-c3c[nH]c(=O)[nH]c3=O)nn3c(F)cnc23)nc1 (racemic) [Example 151, 6-((1S,2S)-2-(6-(2,4-dioxo-1,2,3,4-tetrahydropyrimidin-5-yl)-3-fluoroimidazo[1,2-b]pyridazin-8-yl)cyclopropyl)nicotinonitrile]	1.94
O=c1[nH]cc(-c2cc([C@H]3C[C@@H]3c3ccc4cccnc4c3)c3nccn3n2)c(=O)[nH]1 (racemic) [Example 154, 5-(8-((1S,2S)-2-(quinolin-7-yl)cyclopropyl)imidazo[1,2-b]pyridazin-6-yl)pyrimidine-2,4(1H,3H)-dione]	5.75
O=c1[nH]cc(-c2cc([C@H]3C[C@@H]3c3ccc4cnccc4c3)c3nccn3n2)c(=O)[nH]1 (racemic) [Example 156, 5-(8-((1S,2S)-2-(isoquinolin-6-yl)cyclopropyl)imidazo[1,2-b]pyridazin-6-yl)pyrimidine-2,4(1H,3H)-dione]	1.87
O=c1[nH]cc(-c2cc([C@H]3C[C@@H]3c3ccc4ncccc4c3)c3nccn3n2)c(=O)[nH]1 (racemic) [Example 157, 5-(8-((2S,2S)-2-(quinolin-6-yl)cyclopropyl)imidazo[1,2-b]pyridazin-6-yl)pyrimidine-2,4(1H,3H)-dione]	2.81
O=c1[nH]cc(-c2cc([C@H]3C[C@@H]3c3ccnc(C(F)(F)F)c3)c3nccn3n2)c(=O)[nH]1 (racemic) [Example 160, 5-(8-((2S,2S)-2-(2-(trifluoromethyl)pyridin-4-yl)cyclopropyl)imidazo[1,2-b]pyridazin-6-yl)pyrimidine-2,4(1H,3H)-dione]	27.8
O=c1[nH]cc(-c2cc([C@H]3C[C@@H]3c3ccncc3F)c3nccn3n2)c(=O)[nH]1 (racemic) [Example 161, 5-(8-((1S,2S)-2-(3-fluoropyridin-4-yl)cyclopropyl)imidazo[1,2-b]pyridazin-6-yl)pyrimidine-2,4(1H,3H)-dione]	11
O=c1[nH]cc(-c2cc([C@H]3C[C@@H]3c3cncc(F)c3)c3nccn3n2)c(=O)[nH]1 (racemic) [Example 164, 5-(8-((1S,2S)-2-(5-fluoropyridin-3-yl)cyclopropyl)imidazo[1,2-b]pyridazin-6-yl)pyrimidine-2,4(1H,3H)-dione]	14
O=c1[nH]cc(-c2cc([C@H]3C[C@@H]3c3ccc(C(F)(F)F)cc3F)c3nccn3n2)c(=O)[nH]1 (racemic) [Example 165, 5-(8-((1S,2S)-2-(2-fluoro-4-(trifluoromethyl)phenyl)cyclopropyl)imidazo[1,2-b]pyridazin-6-yl)pyrimidine-2,4(1H,3H)-dione]	38.7
O=c1[nH]cc(-c2cc([C@H]3C[C@@H]3c3ccnc4ccccc34)c3nccn3n2)c(=O)[nH]1 (racemic) [Example 167, 5-(8-((1S,2S)-2-(quinolin-4-yl)cyclopropyl)imidazo[1,2-b]pyridazin-6-yl)pyrimidine-2,4(1H,3H)-dione]	152
O=c1[nH]cc(-c2cc([C@H]3C[C@@H]3c3cccc4cnccc34)c3nccn3n2)c(=O)[nH]1 (racemic) [Example 168, 5-(8-((1S,2S)-2-(isoquinolin-5-yl)cyclopropyl)imidazo[1,2-b]pyridazin-6-yl)pyrimidine-2,4(1H,3H)-dione]	306
CCOC(=O)c1cn2nc(-c3c[nH]c(=O)[nH]c3=O)cc([C@H]3C[C@@H]3c3ccc(F)cc3)c2n1 (racemic) [Example 172, ethyl 6-(2,4-dioxo-1,2,3,4-tetrahydropyrimidin-5-yl)-8-((1S,2S)-2-(4-fluorophenyl)cyclopropyl)imidazo[1,2-b]pyridazine-2-carboxylate]	65.1
O=c1[nH]cc(-c2cc([C@H]3C[C@@H]3c3cccnc3)c3ncc(F)n3n2)c(=O)[nH]1 (racemic) [Example 180, 5-(3-fluoro-8-((1S,2S)-2-(pyridin-3-yl)cyclopropyl)imidazo[1,2-b]pyridazin-6-yl)pyrimidine-2,4(1H,3H)-dione]	4.67
O=c1[nH]cc(-c2cc([C@H]3C[C@@H]3c3ccc(Cl)cc3)c3ncc(F)n3n2)c(=O)[nH]1 (racemic) [Example 182, 5-(8-((2S,2S)-2-(4-chlorophenyl)cyclopropyl)-3-fluoroimidazo[1,2-b]pyridazin-6-yl)pyrimidine-2,4(1H,3H)-dione]	10.4
O=c1[nH]cc(-c2cc([C@H]3C[C@@H]3c3ccc(C(F)(F)F)cc3)c3ncc(F)n3n2)c(=O)[nH]1 (racemic) [Example 183, 5-(3-fluoro-8-((1S,2S)-2-(4-(trifluoromethyl)phenyl)cyclopropyl)imidazo[1,2-b]pyridazin-6-yl)pyrimidine-2,4(1H,3H)-dione]	23.9

The remaining lines, values ahead:

EC50 [nM]	Structure (SMILES)
0.14	O=c1[nH]cc(-c2cc([C@H]3C[C@@H]3c3ccc4c(F)nn(CC(F)(F)F)c4c3)c3nccn3n2)c(=O)[nH]1 (racemic) [Example 117, 5-(8-((2S,2S)-2-(3-fluoro-1-(2,2,2-trifluoroethyl)-1H-indazol-6-yl)cyclopropyl)imidazo[1,2-b]pyridazin-6-yl)pyrimidine-2,4(1H,3H)-dione]
13.1	O=c1[nH]cc(-c2cc([C@H]3C[C@@H]3c3ccc4ncsc4c3)c3nc(C4CC4)cn3n2)c(=O)[nH]1 (racemic) [Example 143, 5-(8-((1S,2S)-2-(benzo[d]thiazol-6-yl)cyclopropyl)-2-cyclopropylimidazo[1,2-b]pyridazin-6-yl)pyrimidine-2,4(1H,3H)-dione]
5.42	N#Cc1ccc([C@H]2C[C@@H]2c2cc(-c3c[nH]c(=O)[nH]c3=O)nn3ccnc23)nc1 (racemic) [Example 155, 6-((1S,2S)-2-(6-(2,4-dioxo-1,2,3,4-tetrahydropyrimidin-5-yl)imidazo[1,2-b]pyridazin-8-yl)cyclopropyl)nicotinonitrile]
10.6	O=c1[nH]cc(-c2cc([C@H]3C[C@@H]3c3cnc4ccccc4c3)c3nccn3n2)c(=O)[nH]1 (racemic) [Example 163, 5-(8-((1S,2S)-2-(quinolin-3-yl)cyclopropyl)imidazo[1,2-b]pyridazin-6-yl)pyrimidine-2,4(1H,3H)-dione]
378	O=c1[nH]cc(-c2cc([C@H]3C[C@@H]3c3cccc4ccncc34)c3nccn3n2)c(=O)[nH]1 (racemic) [Example 166, 5-(8-((1S,2S)-2-(isoquinolin-8-yl)cyclopropyl)imidazo[1,2-b]pyridazin-6-yl)pyrimidine-2,4(1H,3H)-dione]
4.35	O=c1[nH]cc(-c2cc([C@H]3C[C@@H]3c3ccccn3)c3ncc(F)n3n2)c(=O)[nH]1 (racemic) [Example 178, 5-(3-fluoro-8-((1S,2S)-2-(pyridin-2-yl)cyclopropyl)imidazo[1,2-b]pyridazin-6-yl)pyrimidine-2,4(1H,3H)-dione]
60.5	O=c1[nH]cc(-c2cc([C@H]3C[C@@H]3c3cncnc3)c3ncc(F)n3n2)c(=O)[nH]1 (racemic) [Example 179, 5-(3-fluoro-8-((1S,2S)-2-(pyrimidin-5-yl)cyclopropyl)imidazo[1,2-b]pyridazin-6-yl)pyrimidine-2,4(1H,3H)-dione]
6.42	O=c1[nH]cc(-c2cc([C@H]3C[C@@H]3c3ccncc3)c3ncc(F)n3n2)c(=O)[nH]1 (racemic) [Example 181, 5-(3-fluoro-8-((1S,2S)-2-(pyridin-4-yl)cyclopropyl)imidazo[1,2-b]pyridazin-6-yl)pyrimidine-2,4(1H,3H)-dione]
